The source of these data is US20180214411A1, “COMPOSITION COMPRISING SATIETY-INDUCING PARTICLES” (PERORA GMBH, priority 2015, published 2018).

This data set in a line: tryptophan release / dissolution in fasted-state simulated gastric fluid (FaSSGF). The conditions noted are these: 30 mg powder in 22 mL FaSSGF, 37° C., agitated. The class given is physicochemical.

Protocol: 30 mg of tryptophan powder were suspended in 22 mL FaSSGF at 37° C. and agitated (shaker ST5 from CAT, Germany). Aliquots were removed at time intervals of 5 min, and tryptophan concentration was quantified using absorption measurement at a wavelength of 280 nm in a NanoDrop® 2000 device (Thermo Scientific, USA).

As to `N[C@@H](Cc1c[nH]c2ccccc12)C(=O)O` [tryptophan powder, L-Tryptophan], the “time after which tryptophan was quantitatively dissolved” value was 10 min.
